From BindingDB's records for doi:10.1016/j.ejmech.2018.08.031 (Wenzhou Medical University, 2018)

Assay: Inhibition of recombinant human GST-tagged EGFR L858R mutant cytoplasmic domain expressed in baculovirus expression system using FAM-labeled peptide as substrate after 10 mins by mobility shift assay
Compound COc1cccc(Nc2cc(Nc3cccc(Cl)c3)ncn2)c1 has an IC50 of 1570 nM. For O=C(Nc1cc(Nc2ccc(Cl)cc2)ncn1)c1ccc(F)cc1, the IC50 was 1610 nM. For O=C(O)CCCC(=O)Nc1cc(Nc2ccc(Cl)cc2)ncn1, the IC50 was 1320 nM. With COc1ccc(Nc2cc(NC(=O)c3ccccc3)ncn2)cc1 the IC50 was 60 nM. For CCOC(=O)c1ccc(Nc2cc(NC(=O)CCCC(=O)O)ncn2)cc1, the IC50 was 69 nM. COc1ccc(OC)c(Nc2cc(NCCc3cccs3)ncn2)c1 showed an IC50 of 167 nM. With COc1ccc(OC)c(Nc2cc(Nc3ccc(N4CCN(C)CC4)cc3)ncn2)c1 the IC50 was 167 nM. In the case of COc1ccc(OC)c(Nc2cc(NC(=O)CCCC(=O)O)ncn2)c1, the IC50 is reported as > 10000 nM. For CCOc1ccc(Nc2cc(NC(=O)c3ccccc3)ncn2)cc1, the IC50 was 1210 nM. In the case of CCOC(=O)CCC(=O)Nc1cc(Nc2cccc(Br)c2)ncn1, the IC50 is reported as 1340 nM. For COc1cccc(Nc2cc(NC(=O)CCCC(=O)O)ncn2)c1, the IC50 was 31 nM. For COc1ccc(OC)c(Nc2cc(Nc3ccc(F)cc3)ncn2)c1, the IC50 was 230 nM. For CCNc1cc(Nc2cccc(Cl)c2)ncn1, the IC50 was > 10000 nM. With CCOC(=O)CCCC(=O)Nc1cc(Nc2cccc(Cl)c2)ncn1 the IC50 was > 10000 nM. For COc1cc(Nc2cc(Nc3ccc(Cl)cc3)ncn2)cc(OC)c1OC, the IC50 was > 10000 nM. COc1ccc(OC)c(Nc2cc(Nc3ccc(S(N)(=O)=O)cc3)ncn2)c1 gave an IC50 of 619 nM. In the case of O=C(O)CCCC(=O)Nc1cc(Nc2cccc(Br)c2)ncn1, the IC50 is reported as > 10000 nM. In the case of CCOC(=O)c1ccc(Nc2cc(Nc3cccc(OC)c3)ncn2)cc1, the IC50 is reported as 1740 nM. Compound O=C(O)CCCC(=O)Nc1cc(Nc2ccccc2)ncn1 has an IC50 of 183 nM. Work on COc1cccc(Nc2cc(Nc3ccc(S(N)(=O)=O)cc3)ncn2)c1 yielded an IC50 of 1850 nM. O=C(O)CCCC(=O)Nc1cc(N2CCOCC2)ncn1 showed an IC50 of 27 nM.
